Experimental data taken from patent US4937346A, “Phenyl-azacykloalkanes” (Carlsson; Per Arvid Emil, priority 1979, dated 1990).
Structures can show the parent of a compound that is named as a salt. Where two headings read alike, the source gives them in different places.

Tests used:
[1] = tested on: rat brain tyrosine hydroxylation; experiment: In-vivo determination of rat brain tyrosine hydroxylation (Dopa formation after NSD 1015, reserpine-pretreated rats); details: sc
Procedure: 2. In-vivo determination of rat brain tyrosine hydroxylation.
The compounds under evaluation were tested biochemically for central DA-receptor (pre- and/or postsynaptic) stimulating activity. The concept of this biochemical screening method is that a DA-receptor agonist will stimulate the receptor and through regulatory feedback systems effect a decline in tyrosine hydroxylase activity and thus a subsequent reduction in the synthesis rate for DA in the presynaptic neuron. Dopa formation, as determined after in-vivo inhibition of the aromatic L-amino acid decarboxylase with NSD 1015 (3-hydroxybenzyl-hydrazine hydrochloride), is taken as an indirect measure of DA synthesis rate.
Rats (150-300 g) pretreated with reserpine were given the compounds under evaluation. Gross behavioral observations (changes in motility, stereotypies etc.) were made in order to evaluate possible postsynaptic dopamine receptor activity. Subsequent administration of NSD 1015, decapitation, brain dissection (corpora striate and the limbic fore-brain), homogenization, centrifugation, ion-exchange chromatography and spectrofluorimetric measurements (all as described in detail by Wikstrom et al., in J. Med. Chem. 21, 864-867, 1978, and references cited therein), gave the actual Dopa levels. Several doses (n=4-6) were tested in order to obtain dose-response curves for each compound and brain area. The dose of a compound producing a half-maximal decrease in the Dopa level in the rat brain part was then estimated.

[2] = tested on: central postsynaptic DA-receptor; experiment: Locomotor activity in reserpine-pretreated rats, comparison of compound 4 with two known dopaminergic agonists; format: in vivo, rat; details: for Motor activity: 0-60 min postinj.; for central postsynaptic DA-receptor stimulation / motor response: s.c.
Procedure: Rats (150-300 g) pretreated with reserpine (10 mg/ kg i.p., 6 h before) were given either phys. saline, compound 4 (100 μmol/kg), N-n-propyl-3-(3,4-dihydroxyphenyl)piperidine (100 μmol/kg) or apomorphine ([…]) subcutaneously and the locomotor activity (accumulated counts 0-60 min.) was quantified by means of Motron boxes (see under 4 above).

dopa formation = experiment: Dopa formation and dopamine metabolite levels in rats not pretreated with GBL or reserpine; format: in vivo, rat
[3] = tested on: postsynaptic dopaminergic receptors; experiment: Locomotor activity in reserpine-treated rats, enantiomers of 3-PPP; format: in vivo, rat
Excerpt: 2. Evidence for postsynaptic dopaminergic receptor agonist activity of (+)-3-PPP.

[4] = tested on: presynaptic dopaminergic receptor (autoreceptor); experiment: Spontaneous exploratory motor activity of rats, enantiomers of 3-PPP; format: in vivo, rat
Procedure: 1. Evidence for presynaptic dopaminergic receptor (autoreceptor) agonist activity of both enantiomers of 3-PPP. Both enantiomers of 3-PPP cause a dose-dependent decrease in spontaneous exploratory motor activity of rats. […] However, the (+)-enantiomer causes a decrease only after doses between 0.25 and 4 mg/kg s.c.

[5] = tested on: dopaminergic receptors (presynaptic and postsynaptic); experiment: Dopaminergic receptor profile of 3-PPP and its enantiomers (summary of tests); format: in vivo; details: summary of enantiomer tests
Excerpt: The two enantiomers of 3-PPP have now been tested separately.

DA autoreceptors = experiment: Effect on spontaneous locomotor activity in the rat; format: in vivo; details: 0-15 min; haloperidol 0.02 mg/kg i.p. 25 min before + saline, n=5
Excerpt: 4. Effect on spontaneous locomotor activity in the rat.
Untreated animals exposed to a new environment display an initial high motor activity which then gradually declines over a period of time. Administration of DA-receptor agonists (e.g. apomorphine) in doses where preferential autoreceptor stimulation is likely to occur, causes a depression of the spontaneous motility mentioned above, considered to be due to the DA autoreceptor-mediated impairment of central DA transmission.
Rats (150-300 g) were injected subcutaneously with several doses of compounds 4 and after 5 minutes they were individually placed in motility boxes ("M/P 40 Fc Electronic Motility Meter". Motron Products, Stockholm) and the motor activity (0-30 min.) was quantified. […] Moreover, there seems to be a correlation between the decrease in spontaneous locomotion and the degree of antagonism of the GBL-induced increase in DA synthesis (cf. 3 above) in the limbic areas of rat brain exerted by compound 4, the per cent decrease of motor activity being roughly 0.6 times the per cent reversal of GBL-induced increase in DA-synthesis rate.

[6] = tested on: postsynaptic dopaminergic receptor; experiment: Antagonism of apomorphine-induced locomotor stimulation; format: in vivo, rat; details: apomorphine 1 mg/kg s.c., means ± s.e.m., n=10
Procedure: 3. Evidence for postsynaptic dopminergic receptor antagonist activity of (-)-3-PPP.
The locomotor stimulating action of the dopamine receptor aqonist apomorphine is antagonized by (-)-3-PPP. […] Thus the postsynaptic receptor antagonist activity requires a larger dose than the presynaptic receptor agonist activity, which is evident after doses down to 0.25 mg/kg.
Further, (-)-3-PPP and racemic 3-PPP have been compared regarding antagonism of apomorphine-induced locomotor stimulation. Either form of 3-PPP was injected subcutaneously in a dose of 8 mg/kg 20 min and apomorphine in a dose of 1 mg/kg subcutaneously 5 min before placing the rats in the Motron for 30 min. Shown are the counts per 30 min., means± s.e.m. and number of experiments (n).

[7] = tested on: postsynaptic DA receptors; experiment: Antagonism of the reserpine-induced "neuroleptic syndrome" in the rat; format: in vivo; details: 20 mg/kg s.c.
Excerpt: 1. Antagonism of the reserpine-induced "neuroleptic syndrome" in the rat
Depletion of the monoamine stores with reserpine brings about a "neuroleptic syndrome" characterized by hypomotility, catalepsy, muscle rigidity, hunch-backed posture as well as a number of other central and peripheral signs of monoamine depletion. This syndrome can be reversed by the administration of drugs that stimulate postsynaptic DA receptors directly or indirectly, e.g. apomorphine, L-Dopa.
Rats (150-300 g) pretreated with reserpine (10 mg/kg i.p., 6 h before) were given compound 4 subcutaneously at different doses.

[8] = reserpine-pretreated rats, Dopa level, limbic, read-out: ED50 Limbic
[9] = reserpine-pretreated rats, Dopa level, striatum, read-out: ED50 Striatum
[10] = limbic, inactive, read-out: ED50 Limbic (class symbol)
[11] = striatum, inactive, read-out: ED50 Striatum (class symbol)

| SMILES | ED50 [1, 8] [µmol/kg] | ED50 [1, 9] [µmol/kg] | other results |
| --- | --- | --- | --- |
| CCCN1CCC(c2cccc(O)c2)C1 (centres unmarked) [Compound 3, N-propyl-30(3-hydroxyphenyl)pyrrolidine] | ~45 | ~45 | – |
| CN(C)CCN1CCCC(c2cccc(O)c2)C1 (centres unmarked) [Compound 14] | ~20 | ~20 | – |
| Oc1cccc(C2CCNC2)c1 (centres unmarked) [1 OH H HBr, reference compound] | – | – | ED50 [1, 10]: > 90 µmol/kg; ED50 [1, 11]: > 90 µmol/kg |
| CC(C)N1CCCC(c2cccc(OC(=O)c3ccccc3)c2)C1 (centres unmarked) [Compound 21] | 0.5 | 0.5 | – |
| CCCN1CCCC(c2ccc(O)c(O)c2)C1 (centres unmarked) [N-n-propyl-3-(3,4-dihydroxyphenyl)piperidine, reference compound] | 9.4 | 10 | Motor activity ([2]; 100 μmol/kg s.c.): 522 ± 83 acc. counts; central postsynaptic DA-receptor stimulation / motor response [2]: strong central postsynaptic DA-receptor stimulatory effects |
| CCCN1CCCC(c2cccc(O)c2)C1 (single isomer, unassigned; (+)) [(+)-3-PPP, reference compound] | – | – | dopa formation (dopa formation; 0.053 to 64 mg/kg, no pretreatment): decrease; levels of 3,4-dihydroxyphenyl acetic acid and homovanillic acid (dopa formation; matched to the changes in dopa formation): corresponding changes in the levels of the dopamine metabolites; effect of haloperidol on locomotor stimulation ([3]; haloperidol): blocked by haloperidol; stimulation of locomotor activity ([3]; reserpine-treated rats, (+)-form 0.25 to 64 mg/kg): marked stimulation of locomotor activity; effect on locomotor activity ([4]; 8 mg/kg s.c.): no effect; increase of locomotor activity to % of control ([4]; 64 mg/kg s.c.): more than 200 % of control; decrease of locomotor activity to % of control ([4]; s.c., first 30 min): 30-40 % of control; activity on presynaptic and postsynaptic dopaminergic receptors [5]: dopaminergic receptor agonist by activating both the presynaptic and the postsynaptic receptors |
| CCCN1CCCC(c2cccc(OCc3ccccc3)c2)C1 (centres unmarked) [Compound 17, N-n-Propyl-3-(3-benzyloxyphenyl)piperidine hydrochloride] | < 45 | < 45 | – |
| CCCCN1CCCC(c2cccc(OC(=O)c3ccccc3)c2)C1 (centres unmarked) [Compound 22] | < 2.7 | < 2.7 | – |
| CCCN1CCCC(c2cccc(OC(C)=O)c2)C1 (centres unmarked) [Compound 10, N-n-Propyl-3-(3-acetoxyphenyl)piperidine hydrochloride] | 1.2 | 1.5 | – |
| CCCCCN1CCCC(c2cccc(O)c2)C1 (centres unmarked) [Compound 6, N-pentyl-3-(3-hydroxyphenyl)piperidine hydrochloride] | 0.9 | 0.6 | – |
| CCCN1CCCC(c2cccc(OC(=O)c3c(C)cccc3C)c2)C1 (centres unmarked) [Compound 19, N-n-Propyl-3-[2,6-dimethylbenzoyloxy)-phenyl]piperidine hydrochloride] | < 45 | < 45 | – |
| CCCN1CCCC(c2cccc(OC(=O)C(C)(C)C)c2)C1 (centres unmarked) [Compound 11] | 2.2 | 1.7 | – |
| CCCN1CCCC(c2cccc(OC(=O)c3ccc(OC(=O)C(C)(C)C)cc3)c2)C1 (centres unmarked) [Compound 20] | < 45 | < 45 | – |
| OCCN1CCCC(c2cccc(O)c2)C1 (centres unmarked) [Compound 13, 2-[3-(3-Hydroxyphenyl)-piperidino]ethanol hydrochloride] | ~20 | ~20 | – |
| O=C(CCCN1CCC(O)(c2ccc(Cl)cc2)CC1)c1ccc(F)cc1 [Haloperidol, reference compound] | – | – | Motor activity (DA autoreceptors): 140 ± 22 acc. counts |
| CCCN1CCCC(c2cccc(OC(=O)c3ccccc3)c2)C1 (centres unmarked) [Compound 12, N-n-Propyl-3-(3-benzoyloxyphenyl)piperidine hydrochloride] | 1.8 | 2 | – |
| CCCN1CCCC(c2cccc(OC(=O)Nc3ccccc3)c2)C1 (centres unmarked) [Compound 18, N-n-Propyl-3[3-(phenylcarbamoyloxy)phenyl]-piperidine hydrochloride] | – | – | ED50 ([1]; read-out: ED50 Limbic): < 45 µmol/kg; ED50 ([1]; read-out: ED50 Striatum): < 45 µmol/kg |
| C=CCN1CCCC(c2cccc(O)c2)C1 (centres unmarked) [Compound 9] | 4.2 | 4 | – |
| CCCCN1CCCC(c2cccc(O)c2)C1 (centres unmarked) [Compound 5, N-butyl-3-(3-hydroxphenyl)piperidine] | 1.7 | 0.7 | – |
| CCCN1CCCC(c2cccc(OC)c2)C1 (centres unmarked) [2 OCH3 n-C3 H7 HBr, N-Propyl-3-(3-methoxyphenyl)piperidine hydrobromide, reference compound] | – | – | ED50 [1, 10]: > 180 µmol/kg; ED50 [1, 11]: > 180 µmol/kg |
| CN1CCc2cccc3c2[C@H]1Cc1ccc(O)c(O)c1-3 [Apomorphine, reference compound] | 0.19 | 0.22 | counts per 30 min., apomorphine alone [6]: 513 ± 35 counts per 30 min.; Motor activity ([2]; 2 μmol/kg s.c.): 624 ± 51 acc. counts; central postsynaptic DA-receptor stimulation / motor response [2]: strong central postsynaptic DA-receptor stimulatory effects |
| C=CCOc1cccc(C2CCCN(CCC)C2)c1 (centres unmarked) [Compound 16, N-n-Propyl-3-(3-allyloxyphenyl)piperidine hydrochloride] | < 45 | < 45 | – |
| CN1CCCC(c2cccc(O)c2)C1 (centres unmarked) [Compound 1] | 2.1 | 1.5 | – |
| CC(C)N1CCCC(c2cccc(O)c2)C1 (centres unmarked) [Compound 7, N-isopropyl-3-(3-hydroxphenyl)piperidine] | 0.8 | 0.7 | antagonism of the reserpine-induced syndrome [7]: No antagonism of the reserpine-induced syndrome was seen |
